According to ChEMBL document CHEMBL1201862, “PubChem BioAssay data set” (2004):
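Five concentrations, 48 hours, 96-well plates. Abbreviation: GI50, concentration required for 50% inhibition of growth.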 Calls of active or inactive are those of the source. Rule as the data show it: active = GI50 up to about 1.1 µM and inactive = higher.

Tests used:
Assay in all cases: growth of human tumour cells (NCI), 48 h
M19-MEL = tested on: M19-MEL
HCT-15 = tested on: HCT-15
SF-539 = tested on: SF-539
SK-MEL-5 = tested on: SK-MEL-5
IGROV-1 = tested on: IGROV-1
TK-10 = tested on: TK-10
UO-31 = tested on: UO-31
EKVX = tested on: EKVX
SNB-78 = tested on: SNB-78
NCI-H522 = tested on: NCI-H522
RPMI-8226 = tested on: RPMI-8226
SK-MEL-2 = tested on: SK-MEL-2
A549 = tested on: A549
COLO 205 = tested on: COLO 205
NCI-H23 = tested on: NCI-H23
NCI-H460 = tested on: NCI-H460
K562 = tested on: K562
SK-MEL-28 = tested on: SK-MEL-28
SF-295 = tested on: SF-295
MDA-MB-231 = tested on: MDA-MB-231

`CN1C=C(C(N)=O)C2CC(O)[C@@](NC(=O)CS(N)(=O)=O)(C(=O)O)C2C1` (some centres not stated) was tested, and the GI50 (M19-MEL) was 4.39 µM (inactive), the GI50 (HCT-15) was 8.91 µM and the GI50 (SF-539) was 2.05 µM (inactive). The GI50 (SK-MEL-5) was 6.31 µM (inactive), the GI50 (IGROV-1) was 2.73 µM (inactive) and the GI50 (TK-10) was 3.92 µM (inactive). The GI50 (UO-31) was 3.05 µM (inactive), the GI50 (EKVX) was 4.19 µM (inactive) and the GI50 (SNB-78) was 2.75 µM (inactive). For the same compound, the GI50 (NCI-H522) was 11.7 µM (inactive), the GI50 (RPMI-8226) was 18 µM (inactive) and the GI50 (SK-MEL-2) was 2.92 µM (inactive). For the same compound, the GI50 (A549) was 3.25 µM (inactive), the GI50 (COLO 205) was 14.1 µM (inactive) and the GI50 (NCI-H23) was 1.86 µM (inactive). For the same compound, the GI50 (NCI-H460) was 3.49 µM (inactive), the GI50 (K562) was 2.17 µM (inactive) and the GI50 (SK-MEL-28) was 2.43 µM (inactive). The GI50 (SF-295) was 2.75 µM (inactive).
For `Cc1cc(Cl)cc2c1NC(=O)C2(O)CC(=O)c1ccco1` (configuration not stated), the GI50 (M19-MEL) was 15.6 µM (inactive), the GI50 (HCT-15) was over 100 µM and the GI50 (SF-539) was > 100 µM (inactive). For the same compound, the GI50 (MDA-MB-231) was 35.3 µM (inactive), the GI50 (SK-MEL-5) was 22.2 µM (inactive) and the GI50 (IGROV-1) was 99.3 µM (inactive). The GI50 (TK-10) was > 100 µM (inactive), the GI50 (UO-31) was > 100 µM (inactive) and the GI50 (EKVX) was > 100 µM (inactive). For the same compound, the GI50 (SNB-78) was > 100 µM (inactive), the GI50 (NCI-H522) was > 100 µM (inactive) and the GI50 (RPMI-8226) was 47 µM (inactive). The GI50 (SK-MEL-2) was > 85.9 µM (inactive), the GI50 (A549) was > 70.6 µM (inactive) and the GI50 (COLO 205) was > 100 µM (inactive). The GI50 (NCI-H23) was > 53.7 µM (inactive), the GI50 (NCI-H460) was > 100 µM (inactive) and the GI50 (K562) was 27.1 µM (inactive). For the same compound, the GI50 (SK-MEL-28) was > 70 µM (inactive) and the GI50 (SF-295) was > 73.3 µM (inactive).
With `CCC1CCc2c(c(=O)oc3c2cc(OC)c2cccc(OC)c23)C1` (configuration not stated) the GI50 (M19-MEL) was 55.8 µM (inactive), the GI50 (HCT-15) was over 100 µM and the GI50 (SF-539) was 58.6 µM (inactive). For the same compound, the GI50 (SK-MEL-5) was 34.8 µM (inactive), the GI50 (IGROV-1) was > 100 µM (inactive) and the GI50 (TK-10) was > 100 µM (inactive). The GI50 (UO-31) was > 100 µM (inactive), the GI50 (EKVX) was > 100 µM (inactive) and the GI50 (SNB-78) was > 100 µM (inactive). For the same compound, the GI50 (NCI-H522) was 36.6 µM (inactive), the GI50 (RPMI-8226) was 49.5 µM (inactive) and the GI50 (SK-MEL-2) was > 100 µM (inactive). The GI50 (A549) was 71 µM (inactive), the GI50 (COLO 205) was > 100 µM (inactive) and the GI50 (NCI-H23) was 57.1 µM (inactive). The GI50 (NCI-H460) was 51.1 µM (inactive), the GI50 (K562) was 40.9 µM (inactive) and the GI50 (SK-MEL-28) was > 100 µM (inactive). For the same compound, the GI50 (SF-295) was 32.6 µM (inactive).
`COc1cc2c(oc(=O)c3cc4ccoc4c(OC)c32)c2cccc(O)c12` was tested, and the GI50 (M19-MEL) was > 100 µM (inactive), the GI50 (HCT-15) was over 100 µM and the GI50 (SF-539) was > 100 µM (inactive). The GI50 (SK-MEL-5) was > 100 µM (inactive), the GI50 (IGROV-1) was > 100 µM (inactive) and the GI50 (TK-10) was > 100 µM (inactive). For the same compound, the GI50 (UO-31) was > 100 µM (inactive), the GI50 (EKVX) was > 100 µM (inactive) and the GI50 (SNB-78) was > 100 µM (inactive). The GI50 (NCI-H522) was > 100 µM (inactive), the GI50 (RPMI-8226) was > 100 µM (inactive) and the GI50 (SK-MEL-2) was > 100 µM (inactive). For the same compound, the GI50 (A549) was > 100 µM (inactive), the GI50 (COLO 205) was > 100 µM (inactive) and the GI50 (NCI-H23) was > 100 µM (inactive). The GI50 (NCI-H460) was > 100 µM (inactive), the GI50 (K562) was > 100 µM (inactive) and the GI50 (SK-MEL-28) was > 100 µM (inactive). The GI50 (SF-295) was > 100 µM (inactive).
